Data published in patent US7238697B2, “Pyridylpyrimidines for use as pesticides” (Bayer CropScience AG, priority 2001, dated 2007).

Assay: log P determination by HPLC (reversed-phase C18), EEC Directive 79/831 Annex V.A8
Format: physicochemical
Details: reversed-phase C18 HPLC column; pH 2.3; HPLC, reversed-phase C 18, 43° C., 0.1% aqueous phosphoric acid/acetonitrile; read-out: log P (pH 2.3)
Experimental: The stated log P values were determined in accordance with EEC Directive 79/831 Annex V.A8 by HPLC (High Performance Liquid Chromatography) using a reversed-phase column, (C 18). Temperature: 43° C. Mobile phases for the determination in the acidic range: 0.1% aqueous phosphoric acid, acetonitrile; linear gradient from 10% acetonitrile to 90% acetonitrile. Calibration was carried out using unbranched alkan-2-ones (having 3 to 16 carbon atoms) with known logP values (determination of the logP values by the retention times using linear interpolation between two successive alkanones).

chromatographic logP	Compound
2.58	O=C(CSc1nccc(-c2ccccn2)n1)Nc1ccc(Cl)cc1 [Example 33]
1.89	COC(=O)/C(O)=C\c1nccc(-c2ccccn2)n1 [Example 34]
2.96	CC(C)(C)OC(=O)CSc1nccc(-c2ccccn2)n1 [Example 35]
0.55	O=C(CSc1nccc(-c2ccccn2)n1)NO [Example 36]
2.93	O=C(CSc1nccc(-c2ccccn2)n1)NCc1ccc(SC(F)(F)F)cc1 [Example 37]
2.96	O=C(CSc1nccc(-c2ccccn2)n1)NCCc1ccc(OC(F)(F)F)cc1 [Example 38]
2.72	O=C(CSc1nccc(-c2ccccn2)n1)NCc1ccccc1OC(F)(F)F [Example 39]
2.76	O=C(CSc1nccc(-c2ccccn2)n1)NCc1ccc(OC(F)(F)F)cc1 [Example 40]
2.83	O=C(CSc1nccc(-c2ccccn2)n1)NCCc1ccc(Cl)cc1Cl [Example 41]
2.82	O=C(CSc1nccc(-c2ccccn2)n1)NCCc1cccc(C(F)(F)F)c1 [Example 42]
3.4	CC(NC(=O)CSc1nccc(-c2ccccn2)n1)c1ccc(C(C)(C)C)cc1 (centres unmarked) [Example 43]
2.64	O=C(CSc1nccc(-c2ccccn2)n1)NCc1ccc(Cl)c(Cl)c1 [Example 44]
2.69	O=C(CSc1nccc(-c2ccccn2)n1)NCc1ccc(Cl)cc1Cl [Example 45]
2.62	O=C(CSc1nccc(-c2ccccn2)n1)NCc1cccc(C(F)(F)F)c1 [Example 46]
2.64	O=C(CSc1nccc(-c2ccccn2)n1)NCc1ccc(C(F)(F)F)cc1 [Example 47]
2.42	O=C(CSc1nccc(-c2ccccn2)n1)NCc1ccc(F)c(Cl)c1 [Example 48]
2.01	CN(Cc1ccc(Cl)nc1)C(=O)CSc1nccc(-c2ccccn2)n1 [Example 49]
2.58	CC(NC(=O)CSc1nccc(-c2ccccn2)n1)c1ccc(Cl)cc1 (centres unmarked) [Example 50]
2.58	O=C(CSc1nccc(-c2ccccn2)n1)NCCc1ccc(Cl)cc1 [Example 51]
1.94	O=C(CSc1nccc(-c2ccccn2)n1)NCc1ccc2c(c1)OCO2 [Example 52]
1.71	O=C(CSc1nccc(-c2ccccn2)n1)NCc1ccc(Cl)nc1 [Example 53]
2.38	O=C(CSc1nccc(-c2ccccn2)n1)NCc1ccc(Cl)cc1 [Example 54]
2	COc1ccc(CNC(=O)CSc2nccc(-c3ccccn3)n2)cc1 [Example 55]

chromatographic logP	Compound
2.56	Cc1ccc(CCNC(=O)CSc2nccc(-c3ccccn3)n2)cc1 [Example 56]
2.48	Cc1ccc(C(C)NC(=O)CSc2nccc(-c3ccccn3)n2)cc1 (centres unmarked) [Example 57]
0.95	CC(C)N1CCN(C(=O)CSc2nccc(-c3ccccn3)n2)CC1 [Example 58]
2.29	Cc1cccc(CNC(=O)CSc2nccc(-c3ccccn3)n2)c1 [Example 59]
1.94	CC1CN(C(=O)CSc2nccc(-c3ccccn3)n2)CC(C)O1 (centres unmarked) [Example 60]
2.67	CN(C(=O)CSc1nccc(-c2ccccn2)n1)C1CCCCC1 [Example 61]
1.14	O=C(CSc1nccc(-c2ccccn2)n1)NCc1ccccn1 [Example 62]
2.31	O=C(CSc1nccc(-c2ccccn2)n1)NC1CCCCC1 [Example 63]
1.82	O=C(CSc1nccc(-c2ccccn2)n1)NCc1ccco1 [Example 64]
1.55	O=C(CSc1nccc(-c2ccccn2)n1)N1CCOCC1 [Example 65]
2.09	O=C(CSc1nccc(-c2ccccn2)n1)N1CCCCC1 [Example 66]
1.83	O=C(CSc1nccc(-c2ccccn2)n1)NCC1CC1 [Example 67]
1.75	O=C(CSc1nccc(-c2ccccn2)n1)N1CCCC1 [Example 68]
1.56	O=C(CSc1nccc(-c2ccccn2)n1)NC1CC1 [Example 69]
1.65	C=CCNC(=O)CSc1nccc(-c2ccccn2)n1 [Example 70]
2.35	COC(=O)CCCSc1nccc(-c2ccccn2)n1 [Example 76]
3.46	COC(=O)CSc1nc(-c2ccccn2)c2cc(Cl)ccc2n1 [Example 77]
2.13	COC(=O)CCSc1nccc(-c2ccccn2)n1 [Example 78]
2.68	COC(=O)CCCCSc1nccc(-c2ccccn2)n1 [Example 79]
3.96	CCCOC(=O)C(Sc1nccc(-c2ccccn2)n1)C(C)C (centres unmarked) [Example 80]
3.37	O=C(CSc1nccc(-c2ccccn2)n1)OCCc1ccccc1 [Example 83]
2.72	CCOC(=O)CCCOC(=O)CSc1nccc(-c2ccccn2)n1 [Example 84]
6.15	CCCCCCCCCCOC(=O)CSc1nccc(-c2ccccn2)n1 [Example 85]

chromatographic logP	Compound
7.22	CCCCCCCCCCCCOC(=O)CSc1nccc(-c2ccccn2)n1 [Example 86]
3.86	O=C(CSc1nccc(-c2ccccn2)n1)OCCCCOc1ccccc1 [Example 88]
3.56	CC(C)CCOC(=O)CSc1nccc(-c2ccccn2)n1 [Example 89]
3.59	O=C(CSc1nccc(-c2ccccn2)n1)OCCCOc1ccc(F)cc1 [Example 91]
2.82	CC(=O)OCCCCCOC(=O)CSc1nccc(-c2ccccn2)n1 [Example 93]
3.48	CC(C)(C)OC(=O)CCCOC(=O)CSc1nccc(-c2ccccn2)n1 [Example 94]
2.29	N#CCCCCOC(=O)CSc1nccc(-c2ccccn2)n1 [Example 95]
3.18	CC(C)=CCOC(=O)CSc1nccc(-c2ccccn2)n1 [Example 96]
2.34	CCOCCOC(=O)CSc1nccc(-c2ccccn2)n1 [Example 98]
1.04	O=C(CSc1nccc(-c2ccccn2)n1)OCCN1CCCCC1 [Example 99]
3.07	CCCCOC(=O)CSc1nccc(-c2ccccn2)n1 [Example 100]
2.81	COC(=O)CSc1nc(-c2ccccn2)cc(-c2ccccn2)n1 [Example 101]
2.2	CCOC(=O)CSc1nccc(-c2cc(C)ccn2)n1 [Example 102]
1.8	COC(=O)CSc1nccc(-c2cc(C)ccn2)n1 [Example 103]
3.67	CCOC(=O)CSc1nccc(-c2cccc(OCC)n2)n1 [Example 104]
2.46	CCOC(=O)CSc1nccc(-c2cccc(C)n2)n1 [Example 105]
3.01	COC(=O)CSc1nc(-c2ccccn2)cc(-c2ccco2)n1 [Example 106]
3.5	COC(=O)CSc1nc(-c2ccc(OC)cc2)cc(-c2ccccn2)n1 [Example 107]
0.89	COC(=O)C[S+]([O-])c1nccc(-c2ccccn2)n1 (centres unmarked) [Example 108]
3.57	COC(=O)CSc1nc(-c2ccccc2)cc(-c2ccccn2)n1 [Example 109]
1.13	O=C(CSc1nccc(-c2ccccn2)n1)OCCCN1CCCCC1 [Example 110]
3.19	CCOC(=O)CSc1nccc(-c2cccc(Cl)n2)n1 [Example 111]
